This test addresses T1, PIKfyve (Homo sapiens, UniProt Q9Y2I7).
T1 construct: Recombinant GST-PIKfyve (full-length, #11-118)
In words: in vitro lipid kinase assay, ADP-Glo luminescence, PI([…])P substrate. Type of test: biochemical.

The values below come from publication PMC10803372 (Cell Death & Disease, 2024).

SMILES strings stand for the structures.

T1 sequence (Q9Y2I7 2-2098): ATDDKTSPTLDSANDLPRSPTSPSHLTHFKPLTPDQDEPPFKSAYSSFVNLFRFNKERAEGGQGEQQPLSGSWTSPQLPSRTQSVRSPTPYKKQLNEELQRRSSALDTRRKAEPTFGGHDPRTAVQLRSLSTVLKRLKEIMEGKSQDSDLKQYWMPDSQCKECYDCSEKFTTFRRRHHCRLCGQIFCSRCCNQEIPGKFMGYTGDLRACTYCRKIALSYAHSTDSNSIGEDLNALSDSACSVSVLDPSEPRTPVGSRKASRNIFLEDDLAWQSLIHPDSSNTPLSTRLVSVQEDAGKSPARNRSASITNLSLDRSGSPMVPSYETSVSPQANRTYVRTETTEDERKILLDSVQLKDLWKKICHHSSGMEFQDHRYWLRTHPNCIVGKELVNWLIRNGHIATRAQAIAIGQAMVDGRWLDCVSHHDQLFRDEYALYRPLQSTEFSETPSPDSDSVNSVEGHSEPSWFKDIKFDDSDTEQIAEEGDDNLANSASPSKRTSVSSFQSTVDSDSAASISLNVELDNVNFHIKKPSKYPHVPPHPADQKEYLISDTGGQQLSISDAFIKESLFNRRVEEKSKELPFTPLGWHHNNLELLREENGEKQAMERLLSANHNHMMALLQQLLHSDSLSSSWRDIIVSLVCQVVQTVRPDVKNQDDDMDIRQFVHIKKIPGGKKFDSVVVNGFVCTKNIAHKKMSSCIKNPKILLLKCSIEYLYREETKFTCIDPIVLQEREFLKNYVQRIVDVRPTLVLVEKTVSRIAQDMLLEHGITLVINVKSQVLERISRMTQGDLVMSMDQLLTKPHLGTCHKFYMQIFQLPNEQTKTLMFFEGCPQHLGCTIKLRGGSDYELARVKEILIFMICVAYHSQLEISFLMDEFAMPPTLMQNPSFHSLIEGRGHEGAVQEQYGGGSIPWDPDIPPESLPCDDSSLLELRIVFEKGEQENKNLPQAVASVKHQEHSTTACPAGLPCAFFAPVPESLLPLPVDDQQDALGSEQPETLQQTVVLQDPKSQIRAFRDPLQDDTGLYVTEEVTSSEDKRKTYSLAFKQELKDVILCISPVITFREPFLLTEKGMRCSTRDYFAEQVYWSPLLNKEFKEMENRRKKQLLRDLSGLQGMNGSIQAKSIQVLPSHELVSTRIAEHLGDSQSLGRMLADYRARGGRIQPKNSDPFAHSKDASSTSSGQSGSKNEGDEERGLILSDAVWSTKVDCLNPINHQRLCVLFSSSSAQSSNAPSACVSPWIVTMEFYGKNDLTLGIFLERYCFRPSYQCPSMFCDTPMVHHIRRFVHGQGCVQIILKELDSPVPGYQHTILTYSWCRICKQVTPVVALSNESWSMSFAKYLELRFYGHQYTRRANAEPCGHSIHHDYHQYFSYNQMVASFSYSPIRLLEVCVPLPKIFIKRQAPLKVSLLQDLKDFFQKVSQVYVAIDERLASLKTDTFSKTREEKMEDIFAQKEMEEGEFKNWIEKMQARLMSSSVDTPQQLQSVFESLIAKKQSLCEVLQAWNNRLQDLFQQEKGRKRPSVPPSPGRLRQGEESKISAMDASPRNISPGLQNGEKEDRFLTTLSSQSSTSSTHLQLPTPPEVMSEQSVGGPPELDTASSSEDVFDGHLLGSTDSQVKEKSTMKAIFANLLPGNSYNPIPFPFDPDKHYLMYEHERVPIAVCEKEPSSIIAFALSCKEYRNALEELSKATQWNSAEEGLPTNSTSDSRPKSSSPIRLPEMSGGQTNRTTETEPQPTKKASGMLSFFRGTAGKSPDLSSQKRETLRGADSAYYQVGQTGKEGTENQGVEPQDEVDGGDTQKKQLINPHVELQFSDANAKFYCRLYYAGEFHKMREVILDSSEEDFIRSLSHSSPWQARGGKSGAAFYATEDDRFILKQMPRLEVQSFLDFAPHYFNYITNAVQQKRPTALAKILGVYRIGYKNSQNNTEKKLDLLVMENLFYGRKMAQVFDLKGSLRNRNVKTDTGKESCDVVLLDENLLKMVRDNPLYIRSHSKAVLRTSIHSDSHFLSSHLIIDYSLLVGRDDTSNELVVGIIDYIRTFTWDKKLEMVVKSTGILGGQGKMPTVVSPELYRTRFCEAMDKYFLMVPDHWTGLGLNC

On to `Oc1ccc(-c2nc(-c3ccncc3)c(-c3ccc(F)cc3)[nH]2)cc1` [SB202190], for which the half-inhibitory concentration (IC50) came to 355 ± 36.2 nM.
